Biological target: T1, alpha 1A adrenoceptors (Homo sapiens, UniProt P35348)
T1 construct: expressed in transfected cells; host or cells: CHO-K1 (clone 13)
T1 sequence (P35348 1-466): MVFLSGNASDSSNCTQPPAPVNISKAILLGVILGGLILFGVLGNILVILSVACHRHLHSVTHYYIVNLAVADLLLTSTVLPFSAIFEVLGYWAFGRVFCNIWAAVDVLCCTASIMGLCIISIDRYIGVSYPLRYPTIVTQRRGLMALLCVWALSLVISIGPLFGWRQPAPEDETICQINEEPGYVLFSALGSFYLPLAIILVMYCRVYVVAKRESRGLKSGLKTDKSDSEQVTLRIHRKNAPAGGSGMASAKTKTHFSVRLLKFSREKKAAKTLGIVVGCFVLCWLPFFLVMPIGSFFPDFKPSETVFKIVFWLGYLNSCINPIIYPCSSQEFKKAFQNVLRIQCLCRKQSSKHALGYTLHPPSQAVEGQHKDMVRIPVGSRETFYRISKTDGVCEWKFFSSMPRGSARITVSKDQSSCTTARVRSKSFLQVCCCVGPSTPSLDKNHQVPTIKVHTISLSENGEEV
Experiment: Functional assay: fluorescent dye (Fluo-3, FLIPR) determination of intracellular calcium in CHO-K1 cells expressing alpha 1A adrenoceptors (clone 13)
Type: cell-based
Conditions: for EC50: CHO-K1 cells expressing alpha 1A adrenoceptor (clone 13), agonist, intracellular calcium, FLIPR, read-out: CHO-1A-13 pEC50 (converted); for CHO-1A-13 IA: intrinsic activity: maximum response relative to norepinephrine bitartrate (full agonist), CHO-K1 alpha 1A clone 13
Description: The activity of potential α1A/L activity in vitro was determined by evaluating the potency and relative intrinsic activity (relative to norepinephrine or phenylephrine) of standard and novel compounds using fluorescent dye determination of intracellular calcium concentrations.
This example illustrates a functional assay which can be used to determine α1A/L agonist activity of Compounds of Formula I.
The activity of compounds of this invention in vitro was examined using fluorescent dye determination of intracellular calcium concentrations.
Chinese hamster ovary cells CHO-K1 expressing the alpha 1A adrenoceptors (clone 13) are washed 4 times (approx. 300 μL/well) with fluorometric imaging plate reader (FLIPR) buffer (Hank's buffered saline solution (HBSS), 2 mM CaCl2, 10 mM HEPES, 2.5 mM probenecid, 100 μM ascorbic acid), with a final volume of 150 μL/well. Cells are loaded with 50 μL/well of 8 μM Fluo-3 AM (Molecular Probes, Eugene, Oreg.), for a final concentration of 2 μM Fluo-3 AM. Cells are then incubated for 60 min at 37° C. Following dye loading, cells are washed 4 times (approx. 300 μL/well) with FLIPR buffer with a final volume of 150 μL/well.
Test compound, control compound and reference compound are run in quadruplicate, 8-point curves on each plate with a final assay concentration range of 10^−4 M to 10^−11 M for each compound. All compounds are dissolved in DMSO at 10 mM, and serially diluted in FLIPR buffer.
The assay plate is placed in the FLIPR incubation chamber and a baseline fluorescence measurement (excitation @ 488 nm and emission @ 510-570 nm) is obtained (15 sec interval). An experimental run is then commenced. The reaction is started with the addition of 50 μL/well (at 4× final concentration) of test, control, or reference compound solution from the agonist plate to the assay plate to all 96 wells simultaneously. Fluorescence is measured for 120 sec at 1 sec intervals. Then, a second addition of 5 μM ionomycin (50 μL/well from 5× concentration ionomycin plate) is added to the assay plate. Fluorescence is measured for 30 sec at 1 sec intervals. All experiments are conducted at room temperature.
For each assay plate, responses (increase in peak fluorescence) in each well following addition of agonist (test, control and reference) are determined. These responses may be expressed as raw CFU (Corrected Fluorescence Units), as a % maximum ionomycin response or other unit as determined by the investigator.
For test compound, control compound (Norepinephrine (NE) bitartrate), and reference compound, the concentration producing a 50% increase in control response (EC50) is determined using iterative curve-fitting methods. Excel spreadsheet or Kaleidagraph software are used to fit data to the general logistic function (E=B+Emax·A^nH/A^nH+EC50^nH), where B is the corrected baseline fluorescence units (defined as zero), A is the concentration of agonist added and nH is the Hill slope (constrained to unity). EC50 values and maxima (Emax) for each curve can be estimated objectively using this software.
In addition, the intrinsic activity (a) is determined. Intrinsic activity is defined as the maximum response to test agonist divided by the maximum response to a full agonist acting through the same receptor. For these experiments, the full agonist is defined as Norepinephrine (NE) bitartrate (control).
As used herein an agonist is a compound that elicits a maximal response greater of that of norepinephrine with a pEC50>5.5.

Row | SMILES | EC50 [nM] | CHO-1A-13 IA
1 | COc1cc(CC2=NCCN2)c(Cl)cc1NS(C)(=O)=O [Compound 25, N-[5-Chloro-4-(4,5-dihydro-1H-imidazol-2-ylmethyl)-2-methoxy-phenyl]-methanesulfonamide] | 75.9 | 0.81
2 | COc1cc(NS(C)(=O)=O)c(OC)cc1CC1=NCCN1 [Compound 22, N-[4-(4,5-Dihydro-1H-imidazol-2-ylmethyl)-2,5-dimethoxy-phenyl]-methanesulfonamide] | 692 | 0.27
3 | CS(=O)(=O)Nc1ccc(CC2=NCCN2)c2ccoc12 [Compound 8, N-[4-(4,5-Dihydro-1H-imidazol-2-ylmethyl)-benzofuran-7-yl]-methanesulfonamide] | 302 | 0.65
4 | CCS(=O)(=O)Nc1ccc(CC2=NCCN2)cc1Cl [Compound 13, Ethanesulfonic acid [2-chloro-4-(4,5-dihydro-1H-imidazol-2-ylmethyl)-phenyl]-amide] | 661 | 0.16

Continued, values first:

Row | EC50 [nM] | CHO-1A-13 IA | SMILES
5 | 347 | 0.43 | COc1cc(NS(C)(=O)=O)ccc1CC1=NCCN1 [Compound 6, N-[4-(4,5-Dihydro-1H-imidazol-2-ylmethyl)-3-methoxy-phenyl]-methanesulfonamide]
6 | 170 | 0.92 | COc1cc(CC2=NCCN2)ccc1NS(C)(=O)=O [Compound 2, N-[4-(4,5-Dihydro-1H-imidazol-2-ylmethyl)-2-methoxy-phenyl]-methanesulfonamide]

Reference: patent US7407980B2, “Imidazolinylmethyl aralkylsulfonamides” (Roche Palo Alto LLC, priority 2002, dated 2008)
